According to patent publication US11890317B2, “Cell-protecting composition containing cyclo histidine-proline as active ingredient” (NovMetaPharma Co., Ltd., priority 2016, dated 2024):

How the values were obtained:
SD mice = assay: Liver function protection against cisplatin liver toxicity in mice, serum ALT and AST; type: in vivo; conditions: CHP 1, 5 or 10 mg/L in drinking water for 1 week, then cisplatin 7.5 mg/kg i.p., serum after 24 hours
Experimental: To determine the protective effect of CHP on liver toxicity in mice, the present inventors purchased SD mice from Koatech, and the mice were raised under constant conditions (temperature: 23±3° C., relative humidity: 55±10%, daily cycle: 12 hours). Five mice were grouped into one group. We fed water and food to mice in the cage. We adapted the mice for experiments for one week prior to the experiment. After the adaption period, the mice were grouped into five groups.
1 group ingested water and was set as a negative control. […] These 3, 4 and 5 groups were set as liver damage prevention effect groups. The CHP ingestion using drinking water was performed once every two days.
To measure ALT and AST, we collected blood from the abdominal aorta from a mouse. We separated only serum from the blood using a centrifugal separator and analyzed the serum using an automatic analyzer (Hitachi 7180; Tokyo, Japan).
We conducted individual comparisons using the […] post-test thereon.

[1] = system: kidney cells (LLC-PK1 cells); assay: Inhibition of gentamicin (GM)-induced apoptosis of kidney cells, cell viability by cell counting kit-8; type: cell-based
Experimental: Specifically, the cyclo histidine-proline (CHP) was produced by requesting only a target spec (99% purity) from a peptide manufacturer (Bachem; Bubendorf, Switzerland). The gentamycin was purchased from Sigma Chemical Co. (St. Louis, Mo., USA). The kidney cells (LLC-PK1 cells) were purchased from the American Type Culture Collection (ATCC; Manassas, VA, USA). The present inventors simultaneously treated and cultured the kidney cell (LLC-PK1 cell) with CHP 0.1, 1, 5 or 10 mg/mL respectively together with GM 5 mg/mL for 6 hours (FIG. 1A).
(§1) Further, the present inventors pre-treated and pre-cultured the kidney cell (LLC-PK1 cell) with CHP 0.1, 1, 5 or 10 mg/mL for 2 hours and subsequently post-treated and post-cultured the kidney cell (LLC-PK1 cell) with GM 5 mg/mL for 4 hours (FIG. 1B). The cell viability was analyzed using cell counting kit-8 (Dojindo Laboratories; Kumamoto, Japan). Subsequently, the cell viability was measured with a microplate reader (Molecular Devices, LLC; Sunnyvale, CA, USA).

ICR mice [2] = assay: Kidney function protection against cisplatin kidney toxicity in mice, serum creatinine; type: in vivo; conditions: CHP 1 mg/kg orally daily for 1 week, then cisplatin 10 mg/kg i.p., serum after 72 hours, FIG. 5
From the text: (§2) Five mice were grouped into one group. We fed water and food to mice in the cage. We adapted the mice for experiments for one week prior to the experiment.

ICR mice [3] = assay: Kidney function protection against cisplatin kidney toxicity in mice, serum BUN; type: in vivo; conditions: CHP 1 mg/kg orally daily for 1 week, then cisplatin i.p., serum after 24 hours, FIG. 6
From the text: as §2

[4] = system: liver cells (Chang liver cells); assay: Inhibition of acetaminophen (APAP)-induced apoptosis of liver cells, cell viability by cell counting kit-8; type: cell-based
Experimental: Specifically, the acetaminophen was purchased from Sigma Chemical Co. (St. Louis, Mo., USA). The liver cells (Chang liver cells) were purchased from the American Type Culture Collection (ATCC; Manassas, VA, USA). The present inventors simultaneously treated and cultured the liver cell (Chang liver cell) with CHP 0.1, 1, 5 or 10 mg/mL respectively together with APAP 15 mM for 24 hours (FIG. 2A).
as §1, with “liver” for “kidney”, “(Chang liver” for “(LLC-PK1”, “24” for “2”, “APAP 15 mM” for “GM 5 mg/mL”, “24” for “4”, “2B).” for “1B).”

O=C1N[C@@H](Cc2c[nH]cn2)C(=O)N2CCC[C@@H]12 [CHP, cyclo histidine-proline]
cisplatin-induced ALT (SD mice; FIG. 3): significantly reduced | cisplatin-induced AST (SD mice; FIG. 4): significantly reduced | inhibition of gentamicin (GM)-induced apoptosis, kidney cells pre-treated with CHP ([1]; CHP 0.1, 1, 5 or 10 mg/mL pre-treatment 2 hours, then GM 5 mg/mL 4 hours, FIG. 1B): greatly inhibited | inhibition of apoptosis of kidney cells induced by gentamicin (GM) ([1]; CHP 0.1, 1, 5 or 10 mg/mL, GM 5 mg/mL, FIG. 1A and 1B): inhibited the apoptosis of kidney cells induced by the gentamicin (GM) in a concentration-dependent manner | cisplatin-induced creatinine (ICR mice [2]): significantly reduced | cisplatin-induced BUN (ICR mice [3]): significantly reduced | inhibition of acetaminophen (APAP)-induced apoptosis, liver cells co-treated with APAP and CHP ([4]; CHP 0.1, 1, 5 or 10 mg/mL together with APAP 15 mM for 24 hours, FIG. 2A): significantly inhibited | inhibition of apoptosis of liver cells induced by acetaminophen (APAP) ([4]; CHP 0.1, 1, 5 or 10 mg/mL, APAP 15 mM, FIG. 2A and 2B): inhibited the apoptosis of liver cells induced by the acetaminophen (APAP) in a concentration-dependent manner

CC(=O)Nc1ccc(O)cc1 [APAP, acetaminophen, reference compound]
apoptosis of liver cells caused by the drug ([4]; APAP 15 mM): induced apoptosis of liver cells

gentamicin [GM, reference compound]
apoptosis of kidney cells caused by the drug ([1]; GM 5 mg/mL): induced apoptosis of kidney cells
